# Key:
# [1] = target: T1, Leucine--tRNA ligase (Mycobacterium tuberculosis (strain ATCC 25618 / H37Rv)) (UniProt P9WFV1); assay: (§1) Inhibition of Mycobacterium tuberculosis LeuRS expressed in Escherichia coli Rosetta (DE3) cells at 100 uM incubated for 30 mins followed by incubation with ATP, leucine, tRNA, iPPase for 10 mins and measured after 30 mins by BIOMOL Green reagent based plate reader analysis relative to control
# T1 sequence (whole entry): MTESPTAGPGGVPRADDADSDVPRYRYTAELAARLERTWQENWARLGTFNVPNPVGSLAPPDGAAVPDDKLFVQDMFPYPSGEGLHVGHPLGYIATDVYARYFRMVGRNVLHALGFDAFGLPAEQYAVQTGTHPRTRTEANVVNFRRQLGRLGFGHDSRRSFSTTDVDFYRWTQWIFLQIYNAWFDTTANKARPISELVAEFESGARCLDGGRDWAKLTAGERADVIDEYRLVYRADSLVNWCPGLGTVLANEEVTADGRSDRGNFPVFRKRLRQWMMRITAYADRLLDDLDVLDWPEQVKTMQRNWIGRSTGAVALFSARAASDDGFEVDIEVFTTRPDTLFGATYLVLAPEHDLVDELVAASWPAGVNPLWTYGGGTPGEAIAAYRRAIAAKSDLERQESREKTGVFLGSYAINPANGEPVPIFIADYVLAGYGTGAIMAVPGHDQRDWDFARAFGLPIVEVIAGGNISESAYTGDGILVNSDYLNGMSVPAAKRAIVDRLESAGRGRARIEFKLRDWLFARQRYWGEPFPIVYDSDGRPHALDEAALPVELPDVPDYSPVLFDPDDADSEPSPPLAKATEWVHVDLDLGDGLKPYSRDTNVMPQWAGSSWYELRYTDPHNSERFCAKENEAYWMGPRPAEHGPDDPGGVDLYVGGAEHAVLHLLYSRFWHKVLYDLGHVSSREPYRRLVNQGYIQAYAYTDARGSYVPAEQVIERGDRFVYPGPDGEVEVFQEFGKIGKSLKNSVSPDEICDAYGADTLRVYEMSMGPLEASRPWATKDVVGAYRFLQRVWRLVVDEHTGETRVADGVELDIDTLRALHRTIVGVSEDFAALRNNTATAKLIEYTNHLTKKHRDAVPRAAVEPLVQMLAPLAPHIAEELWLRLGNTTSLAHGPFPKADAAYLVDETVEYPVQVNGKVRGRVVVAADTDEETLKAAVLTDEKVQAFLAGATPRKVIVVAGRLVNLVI
# [2] = system: Mycobacterium tuberculosis H37Rv; assay: as §1, with “of recombinant” for “of”, “H37Rv C-terminal His6-tagged MetRS” for “LeuRS”, “BL21” for “Rosetta”, “(DE3) Star” for “(DE3)”, “methionine,” for “leucine,”
# Saccharomyces cerevisiae = assay: Inhibition of yeast inorganic pyrophosphatase assessed as inhibition of BIOMOL-Green signal using inorganic pyrophosphate as substrate at 50 uM incubated for 10 mins in MtbMetRS reaction buffer and measured after 30 mins by BIOMOL-Green reagent based plate reader analysis
# [3] = Inhibition of BIOMOL-Green signal at 50 uM in MtbMetRS reaction buffer in presence of 10 uM phosphate standard measured after 30 mins by plate reader analysis
# [4] = system: Mycobacterium tuberculosis; assay type: functional; conditions: H37Rv ATCC 27294, 168 h
# [5] = system: Mycobacterium tuberculosis; assay type: functional; conditions: H37Rv ATCC 27294, 168 h; remark: listed apart in the source
# [6] = system: Mycobacterium tuberculosis; assay type: functional; conditions: H37Rv ATCC 27294, 336 h
# [7] = system: Mycobacterium tuberculosis; assay type: functional; conditions: H37Rv ATCC 27294, 336 h; remark: listed apart in the source
# [8] = system: Mycobacterium tuberculosis; assay type: functional; conditions: H37Rv ATCC 27294, 168 h; remark: listed apart in the source
# Leucine--tRNA ligase = target: T2, Leucine--tRNA ligase (Mycobacterium tuberculosis (strain ATCC 25618 / H37Rv), UniProt P9WFV1); assay: (§2) Inhibition of Mycobacterium tuberculosis LeuRS expressed in Escherichia coli Rosetta (DE3) cells incubated for 30 mins followed by incubation with ATP, leucine, tRNA, iPPase for 10 mins and measured after 30 mins by BIOMOL Green reagent based plate reader analysis
# T2 sequence (P9WFV1 whole entry): T1 sequence (whole entry)
# [9] = system: Mycobacterium tuberculosis; assay type: functional; conditions: H37Rv ATCC 27294, 168 h; remark: listed apart in the source
# [10] = as §2, with “of recombinant” for “of”, “H37Rv C-terminal His6-tagged MetRS” for “LeuRS”, “BL21” for “Rosetta”, “(DE3) Star” for “(DE3)”, “methionine,” for “leucine,”
# [11] = system: Mycobacterium tuberculosis; assay type: functional; conditions: H37Rv ATCC 27294, 336 h; remark: listed apart in the source
# [12] = system: Mycobacterium tuberculosis; assay type: functional; conditions: H37Rv ATCC 27294, 336 h; remark: listed apart in the source
# [13] = Cytotoxicity against human HEK293 cells assessed as reduction in cell viability incubated for 72 hrs by MTT assay; assay type: cell-based
# [14] = Cytotoxicity against human HepG2 cells assessed as reduction in cell viability incubated for 72 hrs by MTT assay; assay type: cell-based
smiles,measurement,setting,value
CCOC(=O)c1sc(N/N=C/c2ccccc2)nc1C,inhibition,[1],19%
same,inhibition,[2],73%
COc1cc(/C=N/Nc2nccs2)cc(Br)c1OCc1ccccc1,inhibition,Saccharomyces cerevisiae,< 35%
same,inhibition,[1],55%
same,inhibition,[2],106%
same,inhibition,[3],< 35%
CCOC(=O)c1sc(N/N=C/c2ccccc2C(F)(F)F)nc1C,inhibition,[1],34%
same,inhibition,[2],45%
O=[N+]([O-])c1ccccc1/C=N/Nc1nccs1,inhibition,[1],45%
same,inhibition,[2],51%
CCOC(=O)c1sc(N/N=C/c2cc(Br)c(O)c(OC)c2)nc1C,inhibition,[1],54%
same,inhibition,[2],94%
Cc1csc(N/N=C/c2ccc(C(=O)O)cc2)n1,inhibition,[1],-4%
CCOC(=O)c1sc(N/N=C/c2cc(Br)c(O)c(Br)c2)nc1C,inhibition,[1],55%
same,inhibition,[2],51%
COc1cc(/C=N/Nc2nccs2)ccc1OC(=O)c1ccc(Cl)cc1Cl,inhibition,Saccharomyces cerevisiae,< 35%
same,inhibition,[1],73%
same,inhibition,[2],142%
same,inhibition,[3],< 35%
O=[N+]([O-])c1cccc(-c2csc(N/N=C/c3cccc(Oc4ccccc4)c3)n2)c1,inhibition,[1],11%
same,inhibition,[2],65%
COc1cc(/C=N/Nc2nc(-c3ccc([N+](=O)[O-])cc3)cs2)cc([N+](=O)[O-])c1O,MIC,[4],50 µM
same,inhibition,[1],103%
same,MIC,[5],≥ 50 µM
same,MIC,[6],> 50 µM
same,MIC,[7],≥ 50 µM
same,MIC,[8],> 50 µM
same,inhibition,[2],94%
same,IC50,Leucine--tRNA ligase,5.8 µM
same,MIC,[9],50 µM
same,IC50,[10]; read-out: IC50,4.2 µM
same,MIC,[11],> 50 µM
same,MIC,[12],> 50 µM
CCOC(=O)c1sc(N/N=C/c2ccccc2Br)nc1C,inhibition,[1],67%
same,inhibition,[2],99%
COC(=O)c1sc(N/N=C/c2ccc(C(=O)O)cc2)nc1C,inhibition,[1],12%
Cc1csc(N/N=C/c2ccccc2Br)n1,IC50,Leucine--tRNA ligase,38.4 µM
same,IC50,[10]; read-out: IC50,123 µM
CCOC(=O)c1sc(N/N=C/c2ccc(Br)cc2)nc1C,inhibition,Saccharomyces cerevisiae,< 35%
same,inhibition,[1],39%
same,inhibition,[2],111%
same,inhibition,[3],< 35%
COc1cc(/C=N/Nc2nc(-c3ccc(Br)cc3)cs2)cc([N+](=O)[O-])c1O,inhibition,Saccharomyces cerevisiae,< 35%
same,inhibition,[1],113%
same,inhibition,[2],110%
same,inhibition,[3],< 35%
COc1ccc(/C=N/Nc2nc(C)cs2)cc1Br,IC50,Leucine--tRNA ligase,95 µM
same,IC50,[10],Not Active
COc1ccc(/C=N/Nc2nccs2)cc1Br,inhibition,[1],29%
same,inhibition,[2],90%
Cc1csc(N/N=C/c2ccc([N+](=O)[O-])cc2)n1,inhibition,[1],20%
same,inhibition,[2],92%
COc1ccc(/C=N/Nc2nc(-c3ccc(F)cc3)cs2)cc1Br,MIC,[4],19 µM
same,inhibition,[1],109%
same,CC50 at 72 h,[13],> 100 µM
same,MIC,[5],9.4 µM
same,MIC,[6],37 µM
same,MIC,[7],2.3 µM
same,MIC,[8],0.78 µM
same,inhibition,[2],121%
same,IC50,Leucine--tRNA ligase,12.5 µM
same,MIC,[9],1.56 µM
same,IC50,[10]; read-out: IC50,10.7 µM
same,CC50 at 72 h,[14],> 100 µM
same,MIC,[11],25 µM
same,MIC,[12],2.3 µM
COc1cc(/C=N/Nc2nc(C)c(C(C)=O)s2)ccc1OCc1ccccc1Cl,inhibition,Saccharomyces cerevisiae,< 35%
same,inhibition,[1],87%
same,inhibition,[2],113%
same,inhibition,[3],< 35%
COC(=O)c1sc(N/N=C/c2ccc([N+](=O)[O-])cc2)nc1C,inhibition,[1],88%
same,inhibition,[2],75%
COc1cccc(/C=N/Nc2nc(C)cs2)c1OC,inhibition,[1],17%
same,inhibition,[2],25%
CCCCCCOc1ccc(/C=N/Nc2nccs2)cc1OC,inhibition,[1],47%
same,inhibition,[2],62%
COC(=O)c1sc(N/N=C/c2ccc(Br)cc2)nc1C,inhibition,Saccharomyces cerevisiae,< 35%
same,inhibition,[1],46%
same,inhibition,[2],88%
same,inhibition,[3],< 35%
COc1ccc(/C=N/Nc2nc(C)c(C)s2)cc1,inhibition,[1],1%
same,inhibition,[2],1%
O=[N+]([O-])c1cccc(-c2csc(N/N=C/c3ccccc3Br)n2)c1,MIC,[4],≥ 50 µM
same,inhibition,[1],80%
same,MIC,[5],37 µM
same,MIC,[6],> 50 µM
same,MIC,[7],> 50 µM
same,MIC,[8],37 µM
same,inhibition,[2],93%
same,IC50,Leucine--tRNA ligase,8.9 µM
same,MIC,[9],> 50 µM
same,IC50,[10]; read-out: IC50,6.5 µM
same,MIC,[11],50 µM
same,MIC,[12],> 50 µM
CCOC(=O)Cc1csc(N/N=C/c2ccc(C(=O)O)cc2)n1,inhibition,[1],12%
same,inhibition,[2],22%
O=C(O)c1ccc(/C=N/Nc2nc(-c3ccc(Cl)cc3Cl)cs2)cc1,MIC,[4],> 50 µM
same,inhibition,[1],101%
same,MIC,[5],> 50 µM
same,MIC,[6],> 50 µM
same,MIC,[7],> 50 µM
same,MIC,[8],> 50 µM
same,inhibition,[2],92%
same,IC50,Leucine--tRNA ligase,27.3 µM
same,MIC,[9],> 50 µM
same,IC50,[10]; read-out: IC50,22.7 µM
same,MIC,[11],> 50 µM
same,MIC,[12],> 50 µM
Cc1csc(N/N=C/c2cc(Br)ccc2O)n1,inhibition,[1],39%
same,inhibition,[2],113%
CCOc1ccc(/C=N/Nc2nc(C)c(C(C)=O)s2)cc1,inhibition,[1],20%
same,inhibition,[2],53%
Cc1sc(N/N=C/c2cccc(O)c2)nc1-c1ccccc1,inhibition,Saccharomyces cerevisiae,< 35%
same,inhibition,[1],65%
same,inhibition,[2],112%
same,inhibition,[3],< 35%
CCOC(=O)c1sc(N/N=C/c2ccc(C(=O)O)cc2)nc1C,inhibition,[1],-7%
same,inhibition,[2],6%
COc1ccc(OC)c(/C=N/Nc2nc(-c3cccnc3)cs2)c1,inhibition,[1],74%
same,inhibition,[2],115%
Brc1ccccc1/C=N/Nc1nc(-c2ccccc2)cs1,IC50,Leucine--tRNA ligase,24.1 µM
same,IC50,[10]; read-out: IC50,37.5 µM
Oc1ccccc1/C=N/Nc1nc(-c2ccccc2)cs1,inhibition,[1],7%
same,inhibition,[2],51%
CCOC(=O)c1sc(N/N=C/c2cccc(O)c2)nc1C,inhibition,[1],1%
same,inhibition,[2],71%
CN(C)c1ccc(/C=N/Nc2nc(-c3ccccc3)cs2)cc1,inhibition,Saccharomyces cerevisiae,< 35%
same,inhibition,[1],65%
same,inhibition,[2],123%
same,inhibition,[3],< 35%
COc1cc(/C=N/Nc2nccs2)ccc1OCc1ccccc1Cl,inhibition,Saccharomyces cerevisiae,< 35%
same,inhibition,[1],64%
same,inhibition,[2],102%
same,inhibition,[3],< 35%
NNC(=O)c1ccncc1 [ISONIAZID],MIC,[4],0.6 µM
same,MIC,[5],0.39 µM
same,MIC,[6],0.6 µM
same,MIC,[7],0.3 µM
same,MIC,[8],0.07 µM
same,MIC,[9],0.1 µM
same,MIC,[11],0.39 µM
same,MIC,[12],0.1 µM
CCc1ccc(/C=N/Nc2nc(-c3cccc([N+](=O)[O-])c3)cs2)cc1,inhibition,[1],3%
same,inhibition,[2],27%
O=[N+]([O-])c1cc(/C=N/Nc2nc(-c3ccccc3)cs2)ccc1O,inhibition,Saccharomyces cerevisiae,< 35%
same,inhibition,[1],53%
same,inhibition,[2],72%
same,inhibition,[3],< 35%

# — ChEMBL document CHEMBL4373683, “Dual-target inhibitors of mycobacterial aminoacyl-tRNA synthetases among N-benzylidene-N'-thiazol-2-yl-hydrazines” (Medchemcomm, 2019)
